The experiment deals with BDF1 mice, colon carcinoma 38 sc, T/C %. Description: NCI In Vivo Anticancer Drug Screen. Data for tumor model Colon Carcinoma 38 (subcutaneous) in B6D2F1 (BDF1) mice. Put shortly:
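T/C readout: treated group (T) measurement over vehicle control group (C) measurement. Endpoint is survival or tumor size in mice bearing a transplanted tumor.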

Where [1] appears, read: endpoint: median tumor weight (est.), dose: 25.0 mg/kg/injection, schedule: Q07DX002 (ip), vehicle: Klucel (hydroxypropylcellulose) (HPC), higher = larger tumour.
Setting [2] is: endpoint: median tumor weight (est.), dose: 3.12 mg/kg/injection, schedule: Q07DX002 (ip), vehicle: Klucel (hydroxypropylcellulose) (HPC), higher = larger tumour.
[3] abbreviates: endpoint: median tumor weight (est.), dose: 12.5 mg/kg/injection, schedule: Q07DX002 (ip), vehicle: Klucel (hydroxypropylcellulose) (HPC), higher = larger tumour.

“And” between values parts separate entries of the source, which are not always exact repeats. Equal entries are not always repeated. Records with an inconclusive call do not appear.

Our source for the T/C values is PubChem BioAssay AID212 (DTP/NCI, 2004).

Turning to `N/C(=N\O)c1cn(C2OC(CO)C(O)C2O)c2ncnc(N)c12` (stereo unspecified), the T/C (endpoint: median tumor weight (est.), dose: 1.0 mg/kg/injection, schedule: Q07DX002 (ip), vehicle: Klucel (hydroxypropylcellulose) (HPC), higher = larger tumour) was 72 % of control; the T/C (endpoint: median tumor weight (est.), dose: 2.0 mg/kg/injection, schedule: Q07DX002 (ip), vehicle: Klucel (hydroxypropylcellulose) (HPC), higher = larger tumour) was 82 % of control; the T/C (endpoint: median tumor weight (est.), dose: 4.0 mg/kg/injection, schedule: Q07DX002 (ip), vehicle: Klucel (hydroxypropylcellulose) (HPC), higher = larger tumour) is 79 % of control; the T/C (endpoint: median tumor weight (est.), dose: 4.0 mg/kg/injection, schedule: Q07DX003 (ip), vehicle: Klucel (hydroxypropylcellulose) (HPC), higher = larger tumour) was 6 % of control; the T/C (endpoint: median tumor weight (est.), dose: 8.0 mg/kg/injection, schedule: Q07DX002 (ip), vehicle: Klucel (hydroxypropylcellulose) (HPC), higher = larger tumour) is 91 % of control; the T/C (endpoint: median tumor weight (est.), dose: 8.0 mg/kg/injection, schedule: Q07DX003 (ip), vehicle: Klucel (hydroxypropylcellulose) (HPC), higher = larger tumour) was 17 % of control. The T/C reads like this: (endpoint: median tumor weight (est.), dose: 16.0 mg/kg/injection, schedule: Q07DX002 (ip), vehicle: Klucel (hydroxypropylcellulose) (HPC), higher = larger tumour) 93 % of control; (endpoint: median tumor weight (est.), dose: 16.0 mg/kg/injection, schedule: Q07DX003 (ip), vehicle: Klucel (hydroxypropylcellulose) (HPC), higher = larger tumour) 7 % of control.

`CSc1ncc2ncn(C3OC(CO)C(O)C3O)c2n1` (stereo unspecified): the T/C was 194 % of control under setting [1] and 56 % of control (endpoint: median tumor weight (est.), dose: 400.0 mg/kg/injection, schedule: Q07DX002 (ip), vehicle: Klucel (hydroxypropylcellulose) (HPC), higher = larger tumour).

As for `CCCC(=O)OC1C=C2N3C(=O)C4CC56C(=CC(OC(C)=O)C7OC75)N4C(=O)C3CC26C2OC12` (stereo unspecified), the T/C is 111 % of control (endpoint: median tumor weight (est.), dose: 1.25 mg/kg/injection, schedule: Q07DX002 (ip), vehicle: Klucel (hydroxypropylcellulose) (HPC), higher = larger tumour); 92 % of control (endpoint: median tumor weight (est.), dose: 2.5 mg/kg/injection, schedule: Q07DX002 (ip), vehicle: Klucel (hydroxypropylcellulose) (HPC), higher = larger tumour); 102 % of control (endpoint: median tumor weight (est.), dose: 5.0 mg/kg/injection, schedule: Q07DX002 (ip), vehicle: Klucel (hydroxypropylcellulose) (HPC), higher = larger tumour); 76 % of control (endpoint: median tumor weight (est.), dose: 10.0 mg/kg/injection, schedule: Q07DX002 (ip), vehicle: Klucel (hydroxypropylcellulose) (HPC), higher = larger tumour).

Take `COc1cccc2c1C(=O)c1c(O)c3c(c(O)c1C2=O)C[C@@](O)(C(C)=O)C[C@@H]3OC1CC(N(Cc2ccccc2)Cc2ccccc2)C(O)C(C)O1` (stereo partly specified): the T/C reads like this: (endpoint: median survival time, dose: 43.0 mg/kg/injection, schedule: Q07DX003 (sc), vehicle: saline with Tween-80, higher = longer survival) 152 % of control; (endpoint: median survival time, dose: 69.0 mg/kg/injection, schedule: Q07DX003 (sc), vehicle: saline with Tween-80, higher = longer survival) 170 % of control; (endpoint: median survival time, dose: 112.0 mg/kg/injection, schedule: Q07DX003 (sc), vehicle: saline with Tween-80, higher = longer survival) 220 % of control; (endpoint: median survival time, dose: 180.0 mg/kg/injection, schedule: Q07DX003 (sc), vehicle: saline with Tween-80, higher = longer survival) 254 % of control; (endpoint: median tumor weight (est.), dose: 6.75 mg/kg/injection, schedule: Q07DX002 (ip), vehicle: distilled water + Tween-80, higher = larger tumour) 108 % of control; (endpoint: median tumor weight (est.), dose: 13.5 mg/kg/injection, schedule: Q07DX002 (ip), vehicle: distilled water + Tween-80, higher = larger tumour) 57 % of control. Further, the T/C (endpoint: median tumor weight (est.), dose: 27.0 mg/kg/injection, schedule: Q07DX002 (ip), vehicle: distilled water + Tween-80, higher = larger tumour) was 13 % of control; the T/C (endpoint: median tumor weight (est.), dose: 27.0 mg/kg/injection, schedule: Q07DX002 (ip), vehicle: saline with Tween-80, higher = larger tumour) was 39 % of control and 50 % of control; the T/C (endpoint: median tumor weight (est.), dose: 54.0 mg/kg/injection, schedule: Q07DX002 (ip), vehicle: saline with Tween-80, higher = larger tumour) was 8 % of control; the T/C (endpoint: median tumor weight (est.), dose: 108.0 mg/kg/injection, schedule: Q07DX002 (ip), vehicle: saline with Tween-80, higher = larger tumour) is 3 % of control.

For the molecule `COc1cccc2c1C(=O)c1c(O)c3c(c(O)c1C2=O)C[C@@](O)(C(=O)CO)C[C@@H]3OC1CC(N)CC(C)O1` (stereo partly specified), the T/C is, setting by setting: (endpoint: median tumor weight (est.), dose: 0.75 mg/kg/injection, schedule: Q07DX002 (ip), vehicle: water, higher = larger tumour) 93 % of control; (endpoint: median tumor weight (est.), dose: 1.5 mg/kg/injection, schedule: Q07DX002 (ip), vehicle: water, higher = larger tumour) 110 % of control; (endpoint: median tumor weight (est.), dose: 3.0 mg/kg/injection, schedule: Q07DX002 (ip), vehicle: water, higher = larger tumour) 25 % of control.

In the case of `O=C(C#Cc1ccccc1)c1ccccc1`, the T/C is 73 % of control under setting [2]; 106 % of control (endpoint: median tumor weight (est.), dose: 3.12 mg/kg/injection, schedule: Q07DX002 (ip), vehicle: water, higher = larger tumour); 77 % of control (endpoint: median tumor weight (est.), dose: 6.25 mg/kg/injection, schedule: Q07DX002 (ip), vehicle: water, higher = larger tumour); 83 % of control under setting [3]; 110 % of control (endpoint: median tumor weight (est.), dose: 12.5 mg/kg/injection, schedule: Q07DX002 (ip), vehicle: water, higher = larger tumour); 101 % of control under setting [1]. Also, the T/C was 117 % of control (endpoint: median tumor weight (est.), dose: 25.0 mg/kg/injection, schedule: Q07DX002 (ip), vehicle: water, higher = larger tumour) and 54 % of control (endpoint: median tumor weight (est.), dose: 50.0 mg/kg/injection, schedule: Q07DX002 (ip), vehicle: water, higher = larger tumour).

`CC(=O)Oc1ccccc1O`: the T/C (endpoint: median tumor weight (est.), dose: 50.0 mg/kg/injection, schedule: Q07DX002 (ip), vehicle: saline + Tween-80 + alcohol, higher = larger tumour) is 158 % of control.

`C[C@H]1C/C=C/[C@H]2[C@@H]3O[C@]3(C)[C@@H](C)[C@H]3[C@H](Cc4ccccc4)NC(=O)[C@]32OC(=O)O/C=C/[C@@](C)(O)C1=O`: the T/C (endpoint: median tumor weight (est.), dose: 6.25 mg/kg/injection, schedule: Q07DX002 (ip), vehicle: Klucel (hydroxypropylcellulose) (HPC), higher = larger tumour) is 79 % of control and the T/C under setting [3] was 88 % of control.

On to `Nc1n[nH]c(N)n1`, for which the T/C is 84 % of control and 90 % of control and 105 % of control (endpoint: median tumor weight (est.), dose: 100.0 mg/kg/injection, schedule: Q07DX002 (ip), vehicle: saline, higher = larger tumour); 56 % of control (endpoint: median tumor weight (est.), dose: 100.0 mg/kg/injection, schedule: Q07DX003 (ip), vehicle: saline with Tween-80, higher = larger tumour); 65 % of control and 69 % of control and 71 % of control (endpoint: median tumor weight (est.), dose: 400.0 mg/kg/injection, schedule: Q07DX002 (ip), vehicle: saline, higher = larger tumour); 110 % of control (endpoint: median tumor weight (est.), dose: 400.0 mg/kg/injection, schedule: Q07DX003 (ip), vehicle: saline with Tween-80, higher = larger tumour); 102 % of control (endpoint: median tumor weight (est.), dose: 800.0 mg/kg/injection, schedule: Q07DX003 (ip), vehicle: saline with Tween-80, higher = larger tumour); 71 % of control and 73 % of control and 81 % of control (endpoint: median tumor weight (est.), dose: 1600.0 mg/kg/injection, schedule: Q07DX002 (ip), vehicle: saline, higher = larger tumour).

For the molecule `CCC1=C[C@H]2CN(CCc3c([nH]c4ccccc34)[C@@](C(=O)OC)(c3cc4c(cc3OC)N(C)[C@H]3[C@@](O)(C(=O)NC)[C@H](OC(C)=O)[C@]5(CC)C=CCN6CC[C@]43[C@@H]65)C2)C1`, the T/C is 116 % of control (endpoint: median tumor weight (est.), dose: 0.03 mg/kg/injection, schedule: Q07DX002 (ip), vehicle: saline, higher = larger tumour); 84 % of control (endpoint: median tumor weight (est.), dose: 0.06 mg/kg/injection, schedule: Q07DX002 (ip), vehicle: saline, higher = larger tumour); 90 % of control (endpoint: median tumor weight (est.), dose: 0.12 mg/kg/injection, schedule: Q07DX002 (ip), vehicle: saline, higher = larger tumour); 108 % of control (endpoint: median tumor weight (est.), dose: 0.5 mg/kg/injection, schedule: Q07DX002 (ip), vehicle: saline, higher = larger tumour); 90 % of control (endpoint: median tumor weight (est.), dose: 1.0 mg/kg/injection, schedule: Q07DX002 (ip), vehicle: saline, higher = larger tumour).

Take `O=CC(O)C(O)C(O)C(O)C(=O)O.[NH-]C1CCCCC1[NH-].[Pt+2]` (stereo unspecified): the T/C by setting is: (endpoint: median tumor weight (est.), dose: 3.12 mg/kg/injection, schedule: Q07DX002 (ip), vehicle: saline, higher = larger tumour) 56 % of control; (endpoint: median tumor weight (est.), dose: 6.25 mg/kg/injection, schedule: Q07DX002 (ip), vehicle: saline, higher = larger tumour) 23 % of control and 24 % of control and 34 % of control; (endpoint: median tumor weight (est.), dose: 12.5 mg/kg/injection, schedule: Q07DX002 (ip), vehicle: saline, higher = larger tumour) 10 % of control and 22 % of control and 34 % of control; (endpoint: median tumor weight (est.), dose: 25.0 mg/kg/injection, schedule: Q07DX002 (ip), vehicle: saline, higher = larger tumour) 12 % of control and 15 % of control.

With `CN(C)c1ccc2c(N(C)C)cc(N(C)C)nc2c1`, the T/C was 77 % of control and 101 % of control under setting [2]; 114 % of control and 107 % of control under setting [3]; 72 % of control under setting [1].
